Measured values taken from publication PMC7247680, “Novel Indole-Based Hydrazones as Potent Inhibitors of the α-class Carbonic Anhydrase from Pathogenic Bacterium Vibrio cholerae” (International Journal of Molecular Sciences, 2020).

biological target: T1, VcCA (α-class carbonic anhydrase from Vibrio cholerae) (Vibrio cholerae, UniProt Q9KMP6); assay: stopped-flow CO2 hydration assay, Cheng-Prusoff; format: biochemical; conditions: read-out: KI * (nM) / VcCA; CO2 substrate, pH 7.4, 10 mM Hepes, 0.1 M NaClO4, 25 °C, 15 min pre-incubation
T1 construct: gene VC_A0274
T1 sequence (Q9KMP6 21-239 limits assumed): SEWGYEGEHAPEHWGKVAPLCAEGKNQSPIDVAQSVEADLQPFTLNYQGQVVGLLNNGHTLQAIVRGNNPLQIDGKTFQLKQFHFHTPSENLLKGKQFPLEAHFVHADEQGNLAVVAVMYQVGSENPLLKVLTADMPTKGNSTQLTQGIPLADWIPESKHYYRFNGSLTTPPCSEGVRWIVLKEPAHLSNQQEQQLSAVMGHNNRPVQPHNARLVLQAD

Compound	Ki [nM]
NS(=O)(=O)c1ccc2[nH]c(C(=O)NN=Cc3cccs3)c(-c3ccccc3)c2c1 [compound 4, 4 (R = H, R1 = thiophen-2-yl)]	80.4
NS(=O)(=O)c1ccc2[nH]c(C(=O)NN=Cc3ccc(Br)s3)c(-c3ccccc3)c2c1 [compound 5, 5 (R = H, R1 = 5-Br-thiophen-2-yl)]	94.8
Cn1cccc1C=NNC(=O)c1[nH]c2ccc(S(N)(=O)=O)cc2c1-c1ccccc1 [compound 6, 6 (R = H, R1 = 1-CH3-pyrrol-2-yl)]	74.1
NS(=O)(=O)c1ccc2[nH]c(C(=O)NN=Cc3cccnc3)c(-c3ccccc3)c2c1 [compound 7, 7 (R = H, R1 = pyridin-3-yl)]	74.2
NS(=O)(=O)c1ccc2[nH]c(C(=O)NN=Cc3ccncc3)c(-c3ccccc3)c2c1 [compound 8, 8 (R = H, R1 = pyridin-4-yl)]	72.1
NS(=O)(=O)c1ccc2[nH]c(C(=O)NN=Cc3c[nH]c4ccccc34)c(-c3ccccc3)c2c1 [compound 9, 9 (R = H, R1 = indol-3-yl)]	60.5
C=NNC(=O)c1[nH]c2ccc(S(N)(=O)=O)cc2c1-c1ccccc1 [compound 10, 10 (R = H, R1 = H)]	46.6
CC=NNC(=O)c1[nH]c2ccc(S(N)(=O)=O)cc2c1-c1ccccc1 [compound 11, 11 (R = H, R1 = CH3)]	27.1
CC(C)=NNC(=O)c1[nH]c2ccc(S(N)(=O)=O)cc2c1-c1ccccc1 [compound 12, 12 (R = CH3, R1 = CH3)]	22.8
CC(CC(C)C)=NNC(=O)c1[nH]c2ccc(S(N)(=O)=O)cc2c1-c1ccccc1 [compound 15, 15 (R = CH3, R1 = isobutyl)]	79.6
NS(=O)(=O)c1ccc2[nH]c(C(=O)NN=C3CCCC3)c(-c3ccccc3)c2c1 [compound 16, 16 (R/R1 = cyclopentyl)]	68
NS(=O)(=O)c1ccc2[nH]c(C(=O)NN=C3CCCCC3)c(-c3ccccc3)c2c1 [compound 17, 17 (R/R1 = cyclohexyl)]	81.4
CC1CCC(=NNC(=O)c2[nH]c3ccc(S(N)(=O)=O)cc3c2-c2ccccc2)CC1 (stereo not shown) [compound 18, 18 (R/R1 = 4-methylcyclohexyl)]	71.4
CCC1CCC(=NNC(=O)c2[nH]c3ccc(S(N)(=O)=O)cc3c2-c2ccccc2)CC1 (stereo not shown) [compound 19, 19 (R/R1 = 4-ethylcyclohexyl)]	62.1
CCCC1CCC(=NNC(=O)c2[nH]c3ccc(S(N)(=O)=O)cc3c2-c2ccccc2)CC1 (stereo not shown) [compound 20, 20 (R/R1 = 4-propylcyclohexyl)]	67.5
NS(=O)(=O)c1ccc2[nH]c(C(=O)NN=C3CCC(c4ccccc4)CC3)c(-c3ccccc3)c2c1 (stereo not shown) [compound 21, 21 (R/R1 = 4-phenylcyclohexyl)]	52.1
CC(C)(C)C1CCC(=NNC(=O)c2[nH]c3ccc(S(N)(=O)=O)cc3c2-c2ccccc2)CC1 (stereo not shown) [compound 22, 22 (R/R1 = 4-tert-butylcyclohexyl)]	34.1
CN1CCC(=NNC(=O)c2[nH]c3ccc(S(N)(=O)=O)cc3c2-c2ccccc2)CC1 [compound 23, 23 (R/R1 = 1-methylpiperidin-4-yl)]	25.2
NS(=O)(=O)c1ccc2[nH]c(C(=O)NN=C3CCN(Cc4ccccc4)CC3)c(-c3ccccc3)c2c1 [compound 24, 24 (R/R1 = 1-benzylpiperidin-4-yl)]	92.4
